Experimental data as given in patent publication US20250051277A1, “DELIVERY OF THERAPEUTIC ALKALOID COMPOUNDS” (Sensorium Therapeutics, Inc., priority 2021, published 2025).
Read-outs that look alike come from different tables or passages of the source.

Tests used:
[1] = assay type: physicochemical; settings: DI water, 25° C., 0.5 mM
[2] = assay type: physicochemical; settings: SGF with pepsin, pH 1.5, 37° C., 0.5 mM

| Structure (SMILES) | Condition 2 Conversion (%) ([1]; time 1 min) | Condition 2 Conversion (%) ([1]; time 5 min) | Condition 2 Conversion (%) ([1]; time 30 min) | Condition 2 Conversion (%) ([1]; time 1 h) | Condition 2 Conversion (%) ([1]; time 4 h) | Condition 2 Conversion (%) ([1]; time 24 h) | Condition 1 Conversion (%) ([2]; time 1 min) | Condition 1 Conversion (%) ([2]; time 5 min) | Condition 1 Conversion (%) ([2]; time 30 min) | Condition 1 Conversion (%) ([2]; time 1 h) | Condition 1 Conversion (%) ([2]; time 4 h) | Condition 1 Conversion (%) ([2]; time 24 h) |
| --- | --- | --- | --- | --- | --- | --- | --- | --- | --- | --- | --- | --- |
| COc1ccc([C@@]23CC/C(=N\NC(=O)NCCc4cccs4)C[C@@H]2N(C)CC3)cc1OC [Compound 256, 1-[[(3aS,7aS)-3a-(3,4-dimethoxyphenyl)-1-methyl-2,3,4,5,7,7a-hexahydroindol-6-ylidene]amino]-3-[2-(2-thienyl)ethyl]urea] | 0 | 0 | 0 | 0 | 43 | 0 | 0 | 0 | 100 | 100 | 23 | 100 |
| COc1ccc([C@@]23CC/C(=N\NC(=O)Nc4ccc(N5CCN(C)CC5)cc4)C[C@@H]2N(C)CC3)cc1OC [Compound 257, 1-[[(3aS,7aS)-3a-(3,4-dimethoxyphenyl)-1-methyl-2,3,4,5,7,7a-hexahydroindol-6-ylidene]amino]-3-[4-(4-methylpiperazin-1-yl)phenyl]urea] | 0 | 0 | 5 | 8 | 30 | 95 | 4.6 | 54.1 | 100 | 100 | 100 | 100 |
| COc1ccc([C@@]23CC/C(=N\NC(=O)NC[C@H]4CC[C@H](C(=O)O)CC4)C[C@@H]2N(C)CC3)cc1OC [Compound 258, 4-[[[[(3aS,7aS)-3a-(3,4-dimethoxyphenyl)-1-methyl-2,3,4,5,7,7a-hexahydroindol-6-ylidene]amino]carbamoylamino]methyl]cyclohexanecarboxylicacid] | 0 | 0 | 0 | 0 | 0 | 0 | 0 | 0 | 42.82 | 100 | 100 | 100 |
| COc1ccc([C@@]23CC/C(=N/NC(=O)Nc4ccccc4Cl)C[C@@H]2N(C)CC3)cc1OC [Compound 270, 1-[(Z)-[(3aS,7aS)-3a-(3,4-dimethoxyphenyl)-1-methyl-2,3,4,5,7,7a-hexahydroindol-6-ylidene]amino]-3-(2-chlorophenyl)urea] | 0 | 0 | 0 | 0 |  |  | 0 | 0 | 1 | 1 |  |  |
| COc1ccc([C@@]23CCC(=NNC(=O)C45CC6CC(CC(C6)C4)C5)C[C@@H]2N(C)CC3)cc1OC [Compound 271, N-[[(3aS,7aS)-3a-(3,4-dimethoxyphenyl)-1-methyl-2,3,4,5,7,7a-hexahydroindol-6-ylidene]amino]adamantane-1-carboxamide] | 78.3 | 70.3 | 82 | 85.7 | 94.5 | 100 | 100 | 100 | 100 | 100 | 100 | 100 |
| COc1ccc([C@@]23CC/C(=N/OC45CC6CC(CC(C6)C4)C5)C[C@@H]2N(C)CC3)cc1OC [Compound 274, (Z,3aS,7aS)-N-(1-adamantyloxy)-3a-(3,4-dimethoxyphenyl)-1-methyl-2,3,4,5,7,7a-hexahydroindol-6-imine] | 0 | 0 | 0 | 0 | 0 | 0 | 0 | 0 | 0 | 0 | 35.5 | 39.91 |
| COc1ccc([C@@]23CCC(=NOCCC45CC6CC(CC(C6)C4)C5)C[C@@H]2N(C)CC3)cc1OC [Compound 276, (3aS,7aS)-N-[2-(1-adamantyl)ethoxy]-3a-(3,4-dimethoxyphenyl)-1-methyl-2,3,4,5,7,7a-hexahydroindol-6-imine] | 0 | 0 | 0 | 0 | 0 | 0 | 0 | 0 | 0 | 2.77 | 5.48 | 5.5 |
| COc1ccc([C@@]23CCC(=NNC(=O)Nc4cccnc4)C[C@@H]2N(C)CC3)cc1OC [Compound 299, 1-[[(3aS,7aS)-3a-(3,4-dimethoxyphenyl)-1-methyl-2,3,4,5,7,7a-hexahydroindol-6-ylidene]amino]-3-(3-pyridyl)urea] | 0 | 0 | 0 | 0 | 8 | 13 | 53 | 100 | 100 | 100 | 100 | 100 |
| COc1ccc([C@@]23CC/C(=N/OC45CC6CC(CC(C6)C4)C5)C[C@@H]2N(C)CC3)cc1OC [Compound 301, (Z,3aS,7aS)-N-(1-adamantyloxy)-3a-(3,4-dimethoxyphenyl)-1-methyl-2,3,4,5,7,7a-hexahydroindol-6-imine] | 0 | 0 | 0 | 0 | 0 | 0 | 0 | 0 | 0 | 0 | 100 | 100 |
| COc1ccc([C@@]23CCC(=NNc4ccc(F)cc4)C[C@@H]2N(C)CC3)cc1OC [Compound 361, (3aS,7aS)-3a-(3,4-dimethoxyphenyl)-6-(2-(4-fluorophenyl)-hydrazineylidene)-1-methyloctahydro-1H-indole] | 0 | 0 | 0 | 0 | 45 | 100 | 10 | 100 | 100 | 100 | 100 | 100 |
| COc1ccc([C@@]23CCC(=NNc4ccc(C(=O)O)cc4)C[C@@H]2N(C)CC3)cc1OC [Compound 363, 4-[2-[(3aS,7aS)-3a-(3,4-dimethoxyphenyl)-1-methyl-2,3,4,5,7,7a-hexahydroindol-6-ylidene]hydrazino]benzoic acid] | 0 | 0 | 0 | 0 | 0 | 8.1 | 0 | 0 | 0 | 2.1 | 27.1 | 46.7 |
| COc1ccc([C@@]23CCC(=NNc4ncccc4C)C[C@@H]2N(C)CC3)cc1OC [Compound 364, (3aS,7aS)-3a-(3,4-dimethoxyphenyl)-1-methyl-6-(2-(3-methylpyridin-2-yl)hydrazineylidene)octahydro-1H-indole] | 0 | 0 | 0 | 35.78 | 47 | 78.89 | 10 | 100 | 14.91 | 16.09 | 77.07 | 90.5 |
| COc1ccc([C@@]23CCC(=NNc4cnccn4)C[C@@H]2N(C)CC3)cc1OC [Compound 365, N-[[(3aS,7aS)-3a-(3,4-dimethoxyphenyl)-1-methyl-2,3,4,5,7,7a-hexahydroindol-6-ylidene]amino]pyrazin-2-amine] | 0 | 0 | 10.11 | 11.33 | 12.6 | 17.4 | 0 | 8.9 | 47.1 | 77.4 | 94.1 | 100 |
